Reference: article PMC10287695, “Non-covalent inhibitors of thioredoxin glutathione reductase with schistosomicidal activity in vivo” (Nature Communications, 2023)
Where “and” joins values, the source holds several entries; their conditions need not be identical. Equal entries are not always repeated. Entries after “also recorded” stand apart in the source; their conditions may differ. Where two headings read alike, the source gives them in different places.

Columns and labels:
[1] = Stability of compound under biochemical assay conditions with recombinant TGR (LC-MS); type: physicochemical; conditions: with or without NADPH
Method: TGR assay solutions (1 ml each) were prepared as described in the main manuscript. […] Each of the reaction mixtures were terminated by the addition of 250 µl of ethyl acetate, extracted with 1 ml of methyl tert-butyl ether. The organic layer was evaporated in vacuo, and the residue was redissolved in 0.5 mL of 50% MeOH before injection onto LC column. LC-MS analysis was done on a Waters SYNAPT quadrupole/time-of-flight mass spectrometer operated in positive ion electrospray mode. The column was Waters XBridge C8 column and gradient was from 20-90% MeCN/0.1% formic acid over 12 min.

[2] = Pharmacokinetics, intraperitoneal administration; type: in vivo, Swiss Webster mice; conditions: for Plasma concentration, single animal / concentration at 0 h / concentration at 0.5 h / concentration at 1 h / concentration at 2 h: IP; for Plasma concentration, single animal / concentration at 0 h / concentration at 0.5 h / concentration at 1 h / concentration at 2 h / concentration at 30 min / concentration at 60 min / concentration at 120 min / plasma concentration: 100 mg/kg; for Plasma concentration, single animal: listed as 2 (8VP101)
Method: All the mice were weighed and dosed intraperitoneally accordingly at 100 mg/kg body weight with freshly prepared 1 or 2.
Blood was collected by submandibular puncture into 1 mL Eppendorf tubes, the plasma was separated and stored in −80 °C until used. A 25 µl of mouse plasma was transferred into 1.5 ml centrifuge tube which was spiked with 2.5 µl of internal standard (IS) working standard solution […] to get final IS contraction of 250 ng/ml and the solution was vortexed. An aliquot of 75 µl of methanol/0.15 formic acid was added and gently vortexed for 2 min. The samples then centrifuged for 20 min at 4 °C and 15000 × g. A clear supernatant (50 µl) with added 50 µl mobile phase (reconstitution solution) from each extraction was then transferred into a 250 µl autosampler vial. A 3 µl aliquot of each sample was injected for LC-MSMS analysis.
The total run time of 2 min with an injection volume of 3 μl at column temperature 40 °C were efficient to achieve accepted results.
A Shimadzu LC20AD, Ultra Performance Liquid Chromatography (UPLC) system (Shimadzu Corporation, Kyoto, Japan) equipped with Shimadzu 8040 triple quadrupole (QqQ) mass analyzer (Shimadzu Corporation, Kyoto, Japan) with an electrospray ionization source (ESI) operated in the positive charge mode for the quantification of 1 and 2.

[3] = Pharmacokinetics, oral gavage; conditions: for plasma concentration, individual animals (Animal 1, Animal 2) / plasma concentration: listed as 1 (8VP101); for plasma concentration, individual animals (Animal 1, Animal 2) / concentration at 30 min / concentration at 60 min / concentration at 120 min / concentration at 0.5 h / concentration at 1 h / concentration at 2 h / plasma concentration: 200 mg/kg; for concentration at 30 min / concentration at 60 min / concentration at 120 min / concentration at 0.5 h / concentration at 1 h / concentration at 2 h: female, Swiss Webster, mouse, plasma, po
Method: Tween 80 and saline were then added to the DMSO solution in that order. Final solution was 10% DMSO:10% Tween 80:80% saline.
Swiss Webster female mice were purchased from Charles River Laboratories (Wilmington, MA, USA). […] All the mice were weighed and gavaged orally at 200 mg/kg body weight with freshly prepared 2. Blood was collected by submandibular puncture at 0, 0.25, 0.5, 1, and 2 h.
Samples were deproteinized with 150 µl of internal standard solution. This mixture was vortexed to mix properly and centrifuged at 13000 × g for 30 min. 160 µl of the supernatant was transferred to another set of tubes and dried using a nitrogen evaporator. Samples were reconstituted in 100 µl of methanol, vortexed and centrifuged at 13000 × g for 20 min. 30 µl of supernatant was transferred to autosampler vials.
Experiments were carried out on ThermoFisher Scientific Vanquish high-performance liquid chromatography connected to ThermoFisher Scientific TSQ Quantis – triple quadrupole mass spectrometer. The analyte molecules were separated on Phenomenex kinetex C18 column 100 Å (2.6 μm, 50 × 3 mm) with the mobile phase composed of Water/0.1% formic acid (A) and Acetonitrile (B) at the flow rate of 0.5 ml/min with the column temperature maintained at 40 °C and the sample of injection was 5 µl.
Quantification was performed using electrospray in the positive mode with the spray voltage of 3500 V. Sheath gas (Arb) 20, Auxiliary gas (Arb) 8 and Sweep gas (Arb) 5.7.

[4] = human, in vivo; cited from earlier work
adult worms in mice = system: adult worms in mice; parameters: method as in PMID 15013742; conditions: cited from earlier work

CCc1ccccc1-c1nc(CN[C@@H]2C[C@@H]3C[C@H]([C@H]2C)C3(C)C)c(C)o1 [Compound 2]
formation of derivatives under biochemical assay conditions [1]: No additional ions except for those corresponding to 2 were detected; also recorded: no formation of derivatives | Plasma concentration, single animal ([2]; 0 Hour): 0.000 uM (2×) and 0.000 ug/mL (2×) | Plasma concentration, single animal ([2]; 0.5 Hour): 4.991 uM and 5.302 uM and 1.758 ug/mL and 1.868 ug/mL | Plasma concentration, single animal ([2]; 1 Hour): 4.630 uM and 3.814 uM and 1.631 ug/mL and 1.343 ug/mL | Plasma concentration, single animal ([2]; 2 Hour): 3.386 uM and 3.401 uM and 1.193 ug/mL and 1.198 ug/mL | concentration at 0 h ([2]; male, Swiss Webster, mouse, plasma, ip, 0 Hour, read-out: Plasma concentration, Average): 0 nM and 0 ng/mL | concentration at 0 h ([2]; male, Swiss Webster, mouse, plasma, ip, 0 Hour, read-out: Plasma concentration, single animal): 0 nM and 0 ng/mL | concentration at 0.5 h ([2]; male, Swiss Webster, mouse, plasma, ip, 0.5 Hour, read-out: Plasma concentration, Average): 4.8 µM and 1690 ng/mL | concentration at 0.5 h ([2]; male, Swiss Webster, mouse, plasma, ip, 0.5 Hour, read-out: Plasma concentration, single animal): 4.12 µM and 1450 ng/mL | concentration at 1 h ([2]; male, Swiss Webster, mouse, plasma, ip, 1 Hour, read-out: Plasma concentration, Average): 3.91 µM and 1520 ng/mL | concentration at 1 h ([2]; male, Swiss Webster, mouse, plasma, ip, 1 Hour, read-out: Plasma concentration, single animal): 3.29 µM and 1600 ng/mL | concentration at 2 h ([2]; male, Swiss Webster, mouse, plasma, ip, 2 Hour, read-out: Plasma concentration, Average): 3.06 µM and 1080 ng/mL | concentration at 2 h ([2]; male, Swiss Webster, mouse, plasma, ip, 2 Hour, read-out: Plasma concentration, single animal): 2.39 µM and 846 ng/mL | concentration at 30 min ([2]; male, Swiss Webster, mouse, plasma, ip, mice, 100 mg/kg i.p., 30 min): 4.8 ± 0.612 µM | concentration at 60 min ([2]; male, Swiss Webster, mouse, plasma, ip, mice, 100 mg/kg i.p., 60 min): 3.91 ± 0.674 µM | concentration at 120 min ([2]; male, Swiss Webster, mouse, plasma, ip, mice, 100 mg/kg i.p., 120 min): 3.06 ± 0.578 µM | concentration at 30 min ([2]; male, Swiss Webster, mouse, plasma, ip, mice, intraperitoneal, 30 min): 1690 ± 216 ng/mL | concentration at 60 min ([2]; male, Swiss Webster, mouse, plasma, ip, mice, intraperitoneal, 60 min): 1520 ± 158 ng/mL | concentration at 120 min ([2]; male, Swiss Webster, mouse, plasma, ip, mice, intraperitoneal, 120 min): 1080 ± 202 ng/mL | Cmax ([2]; male, Swiss Webster, mouse, plasma, ip, mice, 100 mg/kg i.p., at 30 min): 4.8 µM | half-life ([2]; male, Swiss Webster, mouse, plasma, ip, mice, 100 mg/kg i.p., estimated from the time points available): ~1.5 h | overt toxicity ([2]; mice, 100 mg/kg i.p.): no overt toxicity | plasma concentration ([2]; mice, 100 mg/kg i.p., 30 min): 4.8 µM | plasma concentration ([2]; mice, 100 mg/kg i.p., 60 min): 3.9 µM | plasma concentration ([2]; mice, 100 mg/kg i.p., 120 min): 3.0 µM | plasma concentration, individual animals (Animal 1, Animal 2) ([3]; PO 200 mg/kg, 0.5 Hour): 0.255 ug/mL and 0.704 uM | plasma concentration, individual animals (Animal 1, Animal 2) ([3]; PO 200 mg/kg, 1 Hour): 0.273 ug/mL and 0.767 uM | plasma concentration, individual animals (Animal 1, Animal 2) ([3]; PO 200 mg/kg, 2 Hour): 0.135 ug/mL and 0.409 uM | concentration at 30 min ([3]; Plasma concentration, mice, oral gavage, 30 min): 714 nM and 252 ng/mL | concentration at 60 min ([3]; Plasma concentration, mice, oral gavage, 60 min): 771 nM and 272 ng/mL | concentration at 120 min ([3]; Plasma concentration, mice, oral gavage, 120 min): 396 nM and 140 ng/mL | concentration at 0.5 h ([3]; plasma concentration, Average, PO 200 mg/kg, 0.5 Hour): 252 ng/mL | concentration at 1 h ([3]; plasma concentration, Average, PO 200 mg/kg, 1 Hour): 272 ng/mL | concentration at 2 h ([3]; plasma concentration, Average, PO 200 mg/kg, 2 Hour): 140 ng/mL | concentration at 0.5 h ([3]; plasma concentration, individual animals (Animal 1, Animal 2), PO 200 mg/kg, 0.5 Hour): 724 nM and 248 ng/mL | concentration at 1 h ([3]; plasma concentration, individual animals (Animal 1, Animal 2), PO 200 mg/kg, 1 Hour): 774 nM and 270 ng/mL | concentration at 2 h ([3]; plasma concentration, individual animals (Animal 1, Animal 2), PO 200 mg/kg, 2 Hour): 383 nM and 144 ng/mL | concentration at 30 min ([3]; plasma concentration, mice, 200 mg/kg p.o., 30 min): 0.71 µM | concentration at 60 min ([3]; plasma concentration, mice, 200 mg/kg p.o., 60 min): 0.77 µM | concentration at 120 min ([3]; plasma concentration, mice, 200 mg/kg p.o., 120 min): 0.4 µM | plasma concentration ([3]; mice, 200 mg/kg p.o., 30 min): 0.714 µM | plasma concentration ([3]; mice, 200 mg/kg p.o., 60 min): 0.771 µM | plasma concentration ([3]; mice, 200 mg/kg p.o., 120 min): 0.396 µM | maximum plasma concentration ([3]; mice, PO 200 mg/kg): 0.77 µM

O=C(C1CCCCC1)N1CC(=O)N2CCc3ccccc3C2C1 (stereo not shown) [PZQ, praziquantel]
half-life [4]: 1.6 h | ED50 against adult worms in mice (adult worms in mice): 80 mg/kg
